The supplement of paper PMC10307832

Experiments:
Test in all cases: relative viability (nuclei count vs DMSO), 5 days (fraction); higher = more cells survive
AZ505 + Dasatinib = compound: C1CCC(CC1)N(CCNCCC2=C3C(=C(C=C2)O)NC(=O)CO3)C(=O)CCNCCC4=CC(=C(C=C4)Cl)Cl [AZ505] + Cc1nc(Nc2ncc(C(=O)Nc3c(C)cccc3Cl)s2)cc(N2CCN(CCO)CC2)n1 [Dasatinib] (partner 0.075 µM)
Outline: (§1)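 Relative viability is defined as nuclei in treated wells over nuclei in vehicle wells. Duplicate plates were run and medians reported. Lung cancer cell lines in 1536-well plates were dosed by pin tool one day after seeding, with one drug or with a fixed anchor-drug dose plus five library-drug doses (not always all listed) in √10 steps, and nuclei were counted after 5 days.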

Dactolisib + Bortezomib = compound: Cn1c(=O)n(-c2ccc(C(C)(C)C#N)cc2)c2c3cc(-c4cnc5ccccc5c4)ccc3ncc21 [Dactolisib] + CC(C)C[C@H](NC(=O)[C@H](Cc1ccccc1)NC(=O)c1cnccn1)B(O)O [Bortezomib] (partner 0.002 µM)
Outline: as §1

Dactolisib + Tozasertib = compound: Cn1c(=O)n(-c2ccc(C(C)(C)C#N)cc2)c2c3cc(-c4cnc5ccccc5c4)ccc3ncc21 [Dactolisib] + Cc1cc(Nc2cc(N3CCN(C)CC3)nc(Sc3ccc(NC(=O)C4CC4)cc3)n2)n[nH]1 [Tozasertib] (partner 0.1 µM)
Outline: as §1

Dactolisib + Pemetrexed = compound: Cn1c(=O)n(-c2ccc(C(C)(C)C#N)cc2)c2c3cc(-c4cnc5ccccc5c4)ccc3ncc21 [Dactolisib] + Nc1nc2[nH]cc(CCc3ccc(C(=O)N[C@@H](CCC(=O)O)C(=O)O)cc3)c2c(=O)[nH]1 [Pemetrexed] (partner 0.2 µM)
Outline: as §1

| Cell Line | relative viability (AZ505 + Dasatinib; first compound 0.08 µM) | relative viability (AZ505 + Dasatinib; first compound 0.253 µM) | relative viability (AZ505 + Dasatinib; first compound 0.8 µM) | relative viability (AZ505 + Dasatinib; first compound 2.53 µM) | relative viability (AZ505 + Dasatinib; first compound 8 µM) | relative viability (Dactolisib + Bortezomib; first compound 0.002 µM) | relative viability (Dactolisib + Bortezomib; first compound 0.006325 µM) | relative viability (Dactolisib + Bortezomib; first compound 0.02 µM) | relative viability (Dactolisib + Bortezomib; first compound 0.06325 µM) | relative viability (Dactolisib + Bortezomib; first compound 0.2 µM) | relative viability (Dactolisib + Tozasertib; first compound 0.002 µM) | relative viability (Dactolisib + Tozasertib; first compound 0.006325 µM) | relative viability (Dactolisib + Tozasertib; first compound 0.02 µM) | relative viability (Dactolisib + Tozasertib; first compound 0.06325 µM) | relative viability (Dactolisib + Tozasertib; first compound 0.2 µM) | relative viability (Dactolisib + Pemetrexed; first compound 0.002 µM) | relative viability (Dactolisib + Pemetrexed; first compound 0.006325 µM) | relative viability (Dactolisib + Pemetrexed; first compound 0.02 µM) | relative viability (Dactolisib + Pemetrexed; first compound 0.06325 µM) | relative viability (Dactolisib + Pemetrexed; first compound 0.2 µM) |
| --- | --- | --- | --- | --- | --- | --- | --- | --- | --- | --- | --- | --- | --- | --- | --- | --- | --- | --- | --- | --- |
| 201T | 0.589 | 0.548 | 0.627 | 0.601 | 0.535 | 1.05 | 1.08 | 1.08 | 1.07 | 0.856 | 0.936 | 0.965 | 0.98 | 0.879 | 0.474 | 0.329 | 0.295 | 0.292 | 0.272 | 0.247 |
| A-427 | 0.659 | 0.693 | 0.622 | 0.749 | 0.682 | 0.947 | 0.959 | 0.966 | 0.61 | 0.581 | 0.201 | 0.192 | 0.253 | 0.208 | 0.187 | 1.09 | 1.03 | 0.968 | 0.8 | 0.644 |
| ABC-1 | 0.539 | 0.524 | 0.542 | 0.58 | 0.515 | 0.345 | 0.296 | 0.303 | 0.312 | 0.247 | 0.188 | 0.176 | 0.165 | 0.166 | 0.19 |  |  |  |  |  |
| BEN | 0.359 | 0.327 | 0.386 | 0.355 | 0.296 | 0.766 | 0.795 | 0.809 | 0.598 | 0.289 | 0.525 | 0.553 | 0.53 | 0.49 | 0.42 | 0.714 | 0.757 | 0.603 | 0.639 | 0.434 |
| CAL-12T | 0.466 | 0.585 | 0.381 | 0.413 | 0.472 | 1.05 | 1.13 | 0.825 | 0.721 | 0.338 | 0.288 | 0.296 | 0.241 | 0.163 | 0.121 | 1.23 | 1.17 | 1.17 | 0.412 | 0.325 |
| COR-L23 | 0.351 | 0.427 | 0.358 | 0.383 | 0.475 | 1.21 | 0.803 | 0.765 | 0.327 | 0.149 | 0.273 | 0.243 | 0.257 | 0.149 | 0.147 | 0.194 | 0.198 | 0.195 | 0.197 | 0.183 |
| COR-L 105 | 0.383 | 0.352 | 0.318 | 0.342 | 0.367 | 0.784 | 0.888 | 0.553 | 0.28 | 0.274 | 0.413 | 0.401 | 0.35 | 0.361 | 0.289 | 1.22 | 1.25 | 0.891 | 0.892 | 0.356 |
| Calu-6 |  |  |  |  |  | 1.08 | 1.07 | 1.06 | 0.593 | 0.387 |  |  |  |  |  |  |  |  |  |  |
| ChaGo-K-1 | 0.663 | 0.702 | 0.616 | 0.657 | 0.604 | 0.977 | 1.07 | 0.861 | 1.04 | 0.755 | 0.248 | 0.235 | 0.221 | 0.223 | 0.211 | 0.27 | 0.261 | 0.255 | 0.256 | 0.247 |
| EBC-1 |  |  |  |  |  | 0.625 | 0.523 | 0.373 | 0.216 | 0.191 |  |  |  |  |  |  |  |  |  |  |
| EKVX | 0.556 | 0.543 | 0.539 | 0.494 | 0.504 | 1.09 | 0.997 | 1.02 | 0.941 | 0.396 | 0.426 | 0.366 | 0.423 | 0.242 | 0.179 | 0.248 | 0.357 | 0.387 | 0.356 | 0.294 |
| EMC-BAC-2 | 0.312 | 0.329 | 0.322 | 0.35 | 0.354 | 1.11 | 1.06 | 1.09 | 0.859 | 0.63 | 0.266 | 0.271 | 0.334 | 0.287 | 0.273 | 0.424 | 0.39 | 0.448 | 0.456 | 0.416 |
| EPLC-272H |  | 0.371 | 0.315 | 0.265 | 0.344 | 0.899 | 0.903 | 0.721 | 0.693 | 0.496 | 0.348 | 0.221 | 0.243 | 0.207 | 0.193 | 0.214 | 0.333 | 0.294 | 0.36 | 0.314 |
| H3255 | 0.368 | 0.316 | 0.369 | 0.388 | 0.483 | 0.798 | 0.693 | 0.766 | 0.664 | 0.39 | 0.525 | 0.521 | 0.682 | 0.51 | 0.432 | 0.568 | 0.44 | 0.558 | 0.464 | 0.474 |
| HARA | 0.191 | 0.229 | 0.367 | 0.318 | 0.217 | 1.12 | 1.08 | 1.13 | 1.1 | 0.491 | 0.103 | 0.116 | 0.103 | 0.112 | 0.0818 | 0.242 | 0.22 | 0.3 | 0.235 | 0.223 |
| HCC-15 | 0.513 | 0.581 | 0.654 | 0.524 | 0.618 | 0.977 | 0.987 | 0.961 | 0.823 | 0.554 | 0.388 | 0.386 | 0.449 | 0.326 | 0.215 | 0.215 | 0.22 | 0.26 | 0.25 | 0.231 |
| HCC-44 |  |  |  |  |  | 0.932 | 0.84 | 0.968 | 0.535 | 0.516 | 0.826 | 0.899 | 0.855 | 0.341 | 0.297 | 0.609 | 0.645 | 0.596 | 0.695 | 0.672 |
| HCC-78 | 0.336 | 0.411 | 0.333 | 0.445 | 0.425 | 0.483 | 0.43 | 0.404 | 0.269 | 0.203 | 0.457 | 0.418 | 0.414 | 0.361 | 0.284 | 0.833 | 0.892 | 0.875 | 0.885 | 0.916 |
